Assay results reported in patent publication US20220002306A1, “CRYSTAL FORM OF UPADACITINIB AND PREPARATION METHOD AND USE THEREOF” (CRYSTAL PHARMACEUTICAL (SUZHOU) CO., LTD., priority 2018, published 2022).
In brackets after ≈: the same amount, converted by molar mass. Several values for one entry are separate records, joined by “and”; a condition that tells them apart may be missing. Equal entries are not always repeated. Entries after “also recorded” stand apart in the source; their conditions may differ. Values belong to the compound of their own block, whether it stands above or below them.

Experiments:
[1] = disclosed in WO2017066775A1, cited from earlier work
[2] = Intrinsic dissolution rate in pH 6.8 PBS; assay type: physicochemical; conditions: for IDR / Cumulative dissolution: 37° C.; for Cumulative dissolution: 100 rpm; for Slope: regression line of data within 8-15 minutes
Method: (§1) Solubility measurement for solubility, dissolution, and intrinsic dissolution rate in PBS in the present disclosure:
The whole pellet was transferred to a dissolution apparatus to test the intrinsic dissolution rate. The slope (in μg/min) of the regression line was calculated according to the data within 8-15 minutes. Intrinsic dissolution rate (IDR) was further calculated according to the slope (in μg/min/cm^2).

[3] = Compressibility (tablet hardness, tensile strength); assay type: physicochemical
Method: An ENERPAC manual tablet press was used for compression. 80 mg of Form CSI of the present disclosure and prior art Form C were weighed and added into the dies of a round tooling (ensuring the isotropy of tables), compressed at 10 KN manually, and then stored at room temperature for 24 h until complete elastic recovery. Hardness (H) was tested with an intelligent tablet hardness tester. Diameter (D) and thickness (L) were tested with a caliper. […] Under a certain force, the greater the tensile strength, the better the compressibility.

[4] = In vitro dissolution of drug product (tablet) in pH 6.8 PBS; assay type: physicochemical; conditions: for Cumulative dissolution: drug product of example 16, 30 mg, 37° C., paddle 75 rpm
[5] = FaSSIF (pH 6.5, 37° C.); disclosed in WO2017066775A1; cited from earlier work
[6] = Kinetic solubility in pH7.4 PBS, FaSSIF and FeSSIF; assay type: physicochemical; conditions: for solubility at 24 h / solubility at 34 h / solubility at 48 h: thermodynamic from solid
Method: Solubility measurement for freebase content in upadacitinib freebase acetic acid solvate of the present disclosure. Solubility measurement for upadacitinib freebase acetic acid solvate of the present disclosure in FaSSIF and FeSSIF:
as §1
The solubility of Form C was disclosed in WO2017066775A1. In order to have a comparison with Form C, solubility of Form CSI was measured. Saturated solutions of Form CSI of the present disclosure were prepared with pH7.4 PBS, pH6.5 FaSSIF and pH5.0 FeSSIF at 25° C. or 37° C. After equilibration for 24 h, 34 h and 48 h, the saturated solutions were obtained by filtration. The concentrations of compound I in the saturated solutions were measured by high performance liquid chromatography (HPLC) and the results are listed in Table 8.

[7] = Storage stability of drug substance (XRPD before and after storage); assay type: physicochemical; conditions: for Solid Form after storage: sealed
Method: Solid samples of Form CSI in the present disclosure were sealed and stored under different conditions of 4° C., 25° C./60% RH, 40° C./75% RH, and 60° C./75% RH. Crystalline form was checked by XRPD before and after storage.

[8] = Mechanical stability (tableting, grinding; XRPD); assay type: physicochemical
Method: 20 mg of Form CSI was weighed into the die of 16 mm round tooling (IDR punch), and tableted by ENERPAC manual tablet press with 3 kN, 7 kN, and 14 kN pressure.
A small amount of Form CSI was grounded manually for 5 minutes in a mortar.

[9] = Particle size distribution; assay type: physicochemical; conditions: wet mode, Isopar G, after 30 seconds of ultrasound
Method: The particle size distribution data in the present disclosure were acquired by a Mastersizer 3000 laser particle size analyzer of Malvern. The test is carried out in wet mode by Hydro MV dispersing device, and the dispersion medium is Isopar G. The method parameters of the laser particle size analyzer are as follows:
The mixture was mixed thoroughly and transferred into the Hydro MV dispersing device. The experiment started when the obscuration is in an appropriate range. The particle size distribution was tested after 30 seconds of ultrasound. The particle size distribution (PSD) patterns are substantially as depicted in FIG. 15 (Form CSI) and FIG. 16 (Form C).

[10] = Crystalline form before and after formulation process (XRPD); assay type: physicochemical
Description: Form CSI of the present disclosure was made into tablet according to the formulation in Table 15 and process in Table 16. Crystalline forms before and after formulation were checked by XRPD, and the XRPD pattern overlay is substantially as depicted in FIG. 17.
Crystalline forms before and after formulation were checked by XRPD, and the comparison of XRPD patterns are substantially as depicted in FIG. 18.

[11] = PBS pH 7.4, aqueous buffer, pH 7.4 PBS, 25° C.
[12] = grounded manually for 5 minutes in a mortar

SMILES: CC[C@@H]1CN(C(=O)NCC(F)(F)F)C[C@@H]1c1cnc2cnc3[nH]ccc3n12 [Form A]
- Crystallinity and stability [1]: poor crystallinity and stability
- Dehydration [1]: can be easily dehydrated to form amorphous

- IDR [2]: 81.6204 μg/min/cm^2
- Cumulative dissolution ([2]; 8 min): 94.7 µg
- Cumulative dissolution ([2]; 10 min): 207.4 µg
- Cumulative dissolution ([2]; 15 min): 388.1 µg
- Slope [2]: 40.8102 µg/min
- Mean tensile strength ([3]; 80 mg compressed at 10 KN): 0.69 MPa
- Cumulative dissolution ([4]; 0 min): 0.0%
- Cumulative dissolution ([4]; 5 min): 22.7%
- Cumulative dissolution ([4]; 10 min): 32.6%
- Cumulative dissolution ([4]; 15 min): 39.2%
- Cumulative dissolution ([4]; 20 min): 44.4%
- Cumulative dissolution ([4]; 30 min): 51.5%
- Cumulative dissolution ([4]; 45 min): 59.5%
- Cumulative dissolution ([4]; 60 min): 65.2%
SMILES: CC[C@@H]1CN(C(=O)NCC(F)(F)F)C[C@@H]1c1cnc2cnc3[nH]ccc3n12 [Form C in WO2017066775A1, (3S,4R)-3-ethyl-4-(3H-imidazo[1,2-a]pyrrolo[2,3-e]pyrazine-8-yl)-N-(2,2,2-trifluoroethyl) pyrrolidine-1-carboxamide, reference compound]
- Solubility [5]: 220 µg/mL (≈ 0.578 mM)

- solubility at 24 h [6, 11]: 790 µg/mL (≈ 2.08 mM)
- solubility at 34 h [6, 11]: 710 µg/mL (≈ 1.87 mM)
- solubility at 48 h [6, 11]: 660 µg/mL (≈ 1.74 mM)
- Solubility compared with Form C ([6]; pH7.4 PBS, pH6.5 FaSSIF and pH5.0 FeSSIF): higher than that of Form C
- solubility at 24 h ([6]; FaSSIF (pH 6.5, 37° C.)): 3800 µg/mL (≈ 9.99 mM)
- solubility at 34 h ([6]; FaSSIF (pH 6.5, 37° C.)): 4100 µg/mL (≈ 10.8 mM)
- solubility at 48 h ([6]; FaSSIF (pH 6.5, 37° C.)): 4100 µg/mL (≈ 10.8 mM)
- solubility at 24 h ([6]; FeSSIF (pH 5.0, 37° C.)): 3100 µg/mL (≈ 8.15 mM)
- solubility at 34 h ([6]; FeSSIF (pH 5.0, 37° C.)): 3000 µg/mL (≈ 7.89 mM)
- solubility at 48 h ([6]; FeSSIF (pH 5.0, 37° C.)): 3100 µg/mL (≈ 8.15 mM)
- IDR [2]: 665.4630 μg/min/cm^2
- Cumulative dissolution ([2]; 8 min): 746.1 µg
- Cumulative dissolution ([2]; 10 min): 1458.8 µg
- Cumulative dissolution ([2]; 15 min): 3087.0 µg
- Slope [2]: 332.7315 µg/min
- Time the crystalline form kept stable ([7]; 4° C.): at least 6 months
- Chemical purity during storage ([7]; 4° C., 40° C./75% RH and 60° C./75% RH): remains substantially unchanged
- Solid Form after storage ([7]; 4° C., 6 months): Form CSI
- Chemical purity during storage ([7]; 25° C./60% RH): remains substantially unchanged
- Solid Form after storage ([7]; 25° C./60% RH, 6 months): Form CSI
- Solid Form after storage ([7]; 40° C./75% RH, 2 weeks): Form CSI
- Solid Form after storage ([7]; 60° C./75% RH, 2 weeks): Form CSI
- Crystalline state after tableting ([8]; 3 kN, 7 kN, and 14 kN pressure): does not change
- Crystallinity after tableting ([8]; 3 kN, 7 kN, and 14 kN pressure): remains substantially unchanged
- Crystallinity after grinding [8, 12]: remains substantially unchanged
- Particle size distribution compared with Form C in WO2017066775A1 [9]: more uniform particle size distribution
- Mean tensile strength ([3]; 80 mg compressed at 10 KN): 1.53 MPa
- Hardness ([3]; 80 mg compressed at 10 KN, tablets No. 1-3): 3.53 kgf and 3.06 kgf and 3.43 kgf
- Tensile strength ([3]; 80 mg compressed at 10 KN, tablets No. 1-3, T=2H/πDL*9.8): 1.57 MPa and 1.43 MPa and 1.58 MPa
- Cumulative dissolution ([4]; 0 min): 0.0%
- Cumulative dissolution ([4]; 5 min): 28.7%
- Cumulative dissolution ([4]; 10 min): 46.4%
- Cumulative dissolution ([4]; 15 min): 53.6%
- Cumulative dissolution ([4]; 20 min): 57.5%
- Cumulative dissolution ([4]; 30 min): 61.3%
- Cumulative dissolution ([4]; 45 min): 64.9%
- Cumulative dissolution ([4]; 60 min): 67.3%
- Physical stability before and after formulation process ([10]; tablet of Example 15 (Table 15, Table 16)): good physical stability
- Crystalline form after formulation process ([10]; tablet of Example 16 (Table 17, Table 18)): remains unchanged
SMILES: CC[C@@H]1CN(C(=O)NCC(F)(F)F)C[C@@H]1c1cnc2cnc3[nH]ccc3n12 [Form CSI, (3S,4R)-3-ethyl-4-(3H-imidazo[1,2-a]pyrrolo[2,3-e]pyrazine-8-yl)-N-(2,2,2-trifluoroethyl) pyrrolidine-1-carboxamide]
- Crystalline state after grinding [8, 12]: does not change; also recorded: remains unchanged after grinding
- Compressibility compared with Form C ([3]; compressed at 10 KN): better compressibility than Form C in WO2017066775A1
- Dissolution rate of drug product compared with Form C [4]: obviously better than that of Form C in WO2017066775A1

SMILES: CC[C@@H]1CN(C(=O)NCC(F)(F)F)C[C@@H]1c1cnc2cnc3[nH]ccc3n12 [Form D]
- Form conversion ([1]; high water activity): will convert to Form C
